Results on 9 molecules are retold here after patent US3956287A, “7-[(2-Oxo-1-pyridinyl)acylamino]cephalosporin derivatives” (Richardson-Merrell Inc., priority 1973, dated 1976).

≈ marks a conversion by molar mass, not a printed value. Structures can show the parent of a compound that is named as a salt. Where two headings read alike, the source gives them in different places.

One data set relates to Staphylococcus aureus. Briefly: in vitro antibacterial activity, minimal inhibiting concentration, Staphylococcus aureus. The following applies: read-out: Minimal inhibiting concentration, Staphylococcus aureus. Type of data set: cell-based. As to the method:
(§1) Specific nutrient agar plates are completely innoculated with the various test organisms. Filter paper discs are placed on the surface of the agar and wetted with 0.1 ml of a solution containing 10, 100 and 1,000 micrograms of the test compound. Zones of inhibition of microbial growth are used to indicate the antibacterial activity of the test compound against the various test organisms employed.
(§2) The following table summarizes the in vitro activity in terms of a concentration required to inhibit the growth of various typical bacteria for the following representative compounds: 6-[2-(2-oxo-1-pyridinyl)acetylamino]penicillanic acid, sodium salt (1), 7-[2-(2-oxo-1-pyridinyl)acetylamino]desacetoxycephalosporanic acid, sodium salt (2), 6-[2-(6-methyl-2-oxo-1-pyridinyl)acetylamino]pencillanic acid (3), 6-[2-(2-oxo-1-pyridinyl)-2-methylacetylamino]penicillanic acid (4), 6-[2-(5-chloro-2-oxo-1-pyridinyl)acetylamino]penicillanic acid (5), 6-[2-(5-nitro-2-oxo-1-pyridinyl)acetylamino]penicillanic acid (6), 6-[ 2-(5-amino-2-oxo-1-pyridinyl)acetylamino]penicillanic acid (7), 6-[2-(3-methoxy-2-oxo-1-pyridinyl)acetylamino]penicillanic acid (8), and 7-[2-(2-oxo-1-pyridinyl)acetylamino]cephalosporanic acid (9).

Data set [1] deals with Salmonella schottmuelleri. Briefly: in vitro antibacterial activity, minimal inhibiting concentration, Salmonella schottmuelleri. Type of data set: cell-based. The following applies: read-out: Minimal inhibiting concentration, Salmonella schottmuelleri. As to the method:
as §1, §2

The test system of the next data set is Streptococcus pyogenes. Briefly: in vitro antibacterial activity, minimal inhibiting concentration, Streptococcus pyogenes. Type of data set: cell-based. The following applies: read-out: Minimal inhibiting concentration, Streptococcus pyogenes. As to the method:
as §1, §2

For data set [2], the system named is (Penicillinase Producing) Staphylococcus aureus. Briefly: in vitro antibacterial activity, minimal inhibiting concentration, penicillinase producing Staphylococcus aureus. The class given is cell-based. Particulars: read-out: Minimal inhibiting concentration, (Penicillinase Producing) Staphylococcus aureus. As to the method:
as §1, §2

The next data set is described as follows: Acid Resistance. Type of data set: physicochemical.
[3] abbreviates: in vitro, filter paper discs on nutrient agar, 0.1 ml of solution containing 10, 100 and 1,000 micrograms.
The mark [4] stands for this setting: penicillinase producing strain, in vitro, filter paper discs on nutrient agar, 0.1 ml of solution containing 10, 100 and 1,000 micrograms.

For `CC1(C)S[C@@H]2C(NC(=O)Cn3cc([N+](=O)[O-])ccc3=O)C(=O)N2[C@H]1C(=O)O` (some centres unmarked) [Compound 6, 6-[2-(5-nitro-2-oxo-1-pyridinyl)acetylamino]penicillanic acid], the MIC in the data set with Staphylococcus aureus (setting [3]) was 10 µg/mL (≈ 25.2 µM); in data set [1] (setting [3]) it was 1000 µg/mL (≈ 2520 µM); in the data set on Streptococcus pyogenes (setting [3]), above 1000 µg/mL; in data set [2] (setting [4]), above 1000 µg/mL. Also, the “Acid Resistance” value in “Acid Resistance” is “Yes”.

For `CC(=O)OCC1=C(C(=O)O)N2C(=O)C(NC(=O)Cn3ccccc3=O)C2SC1` (centres unmarked) [Compound 9, 7-[2-(2-oxo-1-pyridinyl)acetylamino]cephalosporanic acid], the MIC was found to be 10 µg/mL (≈ 24.5 µM) with Staphylococcus aureus (setting [3]), 100 µg/mL (≈ 245 µM) in data set [1] (setting [3]), 10 µg/mL (≈ 24.5 µM) in the data set on Streptococcus pyogenes (setting [3]) and 1000 µg/mL (≈ 2450 µM) in data set [2] (setting [4]). In addition, the “Acid Resistance” value in the data set “Acid Resistance” is listed as “Yes”.

For `COc1cccn(CC(=O)NC2C(=O)N3[C@@H]2SC(C)(C)[C@@H]3C(=O)O)c1=O` (some centres unmarked) [Compound 8, 6-[2-(3-methoxy-2-oxo-1-pyridinyl)acetylamino]penicillanic acid], the MIC amounted to 10 µg/mL (≈ 26.2 µM) with Staphylococcus aureus (setting [3]), 1000 µg/mL (≈ 2620 µM) in data set [1] (setting [3]) and 1000 µg/mL (≈ 2620 µM) in data set [2] (setting [4]). Further, in the data set “Acid Resistance”, the “Acid Resistance” value was “Yes”.

`CC1(C)S[C@@H]2C(NC(=O)Cn3ccccc3=O)C(=O)N2[C@H]1C(=O)[O-].[Na+]` (some centres unmarked) [Compound 1, 6-[2-(2-oxo-1-pyridinyl)acetylamino]penicillanic acid, sodium salt]: the MIC in the data set with Staphylococcus aureus stood at 10 µg/mL; in data set [1], 1000 µg/mL; in the data set on Streptococcus pyogenes it was 10 µg/mL; in data set [2] it was 1000 µg/mL. In addition, the “Acid Resistance” value in “Acid Resistance” was “Yes”.

For `CC1(C)S[C@@H]2C(NC(=O)Cn3cc(Cl)ccc3=O)C(=O)N2[C@H]1C(=O)O` (some centres unmarked) [Compound 5, 6-[2-(5-chloro-2-oxo-1-pyridinyl)acetylamino]penicillanic acid], the MIC with Staphylococcus aureus (setting [3]) is 10 µg/mL (≈ 25.9 µM); in data set [1] (setting [3]), 1000 µg/mL (≈ 2590 µM); in the data set on Streptococcus pyogenes (setting [3]), 1000 µg/mL (≈ 2590 µM); in data set [2] (setting [4]), above 1000 µg/mL. The “Acid Resistance” value in “Acid Resistance” is given as “Yes”.

As to `CC1(C)S[C@@H]2C(NC(=O)Cn3cc(N)ccc3=O)C(=O)N2[C@H]1C(=O)O` (some centres unmarked) [Compound 7, 6-[2-(5-amino-2-oxo-1-pyridinyl)acetylamino]penicillanic acid], the MIC in the data set on Staphylococcus aureus (setting [3]) is 10 µg/mL (≈ 27.3 µM); in data set [1] (setting [3]) it was 1000 µg/mL (≈ 2730 µM); in the data set with Streptococcus pyogenes (setting [3]) it was above 1000 µg/mL; in data set [2] (setting [4]), above 1000 µg/mL. For the same molecule, in “Acid Resistance”, the “Acid Resistance” value is “Yes”.

As to `CC(C(=O)NC1C(=O)N2[C@@H]1SC(C)(C)[C@@H]2C(=O)O)n1ccccc1=O` (some centres unmarked) [Compound 4, 6-[2-(2-oxo-1-pyridinyl)-2-methylacetylamino]penicillanic acid], the MIC (in the data set on Staphylococcus aureus (setting [3]); in data set [1] (setting [3]); in the data set with Streptococcus pyogenes (setting [3]); in data set [2] (setting [4])) was 1000 µg/mL (≈ 2740 µM) in each case. Moreover, the “Acid Resistance” value in “Acid Resistance” is “Weak”.

Consider `Cc1cccc(=O)n1CC(=O)NC1C(=O)N2C1SC(C)(C)C2C(=O)O` (centres unmarked) [Compound 3, 6-[2-(6-methyl-2-oxo-1-pyridinyl)acetylamino]pencillanic acid], for which the MIC in the data set on Staphylococcus aureus (setting [3]) worked out at 10 µg/mL (≈ 27.4 µM); in data set [1] (setting [3]) it was 1000 µg/mL (≈ 2740 µM); with Streptococcus pyogenes (setting [3]), 1000 µg/mL (≈ 2740 µM); in data set [2] (setting [4]), 1000 µg/mL (≈ 2740 µM). Besides, in “Acid Resistance”, the “Acid Resistance” value is “Yes”.

With `CC1=C(C(=O)O)N2C(=O)C(NC(=O)Cn3ccccc3=O)C2SC1` (centres unmarked) [Compound 2, 7-[2-(2-oxo-1-pyridinyl)acetylamino]desacetoxycephalosporanic acid, sodium salt], the MIC in the data set with Staphylococcus aureus (setting [3]) was 1000 µg/mL; in data set [1] (setting [3]), above 1000 µg/mL; in the data set with Streptococcus pyogenes (setting [3]), 1000 µg/mL; in data set [2] (setting [4]) it was above 1000 µg/mL. Moreover, the “Acid Resistance” value in “Acid Resistance” was “Yes”.
